Measurements from patent US20250051264A1, “CANNABIDIOL DERIVATIVE, PREPARATION METHOD THEREFOR AND APPLICATION THEREOF” (DEYI PHARMACEUTICAL LTD., priority 2021, published 2025).

How the values were obtained:
Assay type in all cases: in vivo, C57/BL6 mice
[1] = test system: model of Parkinson's disease; test: Behavioral balance beam score in the MPTP mouse model of Parkinson's disease; settings: for balance beam score after treatment: after 14 days intragastric treatment, model group 4-5 points; for Behavioral balance beam score, After treatment: after intragastric administration once a day for 14 days (compound 3 100 mg/kg; amantadine 40 mg/kg), model group 4.50 ± 0.53; for Behavioral balance beam score, After treatment / Behavioral balance beam score, After modeling: scale 0-5; for balance beam score as compared to the model group: after treatment, P≤0.05; for Behavioral balance beam score, After modeling: baseline 7 days after MPTP 25 mg/kg i.p. once daily, before treatment, mean ± SD, 8 mice per group
Procedure: C57/BL6 mice, SPF grade, weighing 18-20 g, aged 6-8 weeks, male, purchased from Shanghai Slac Laboratory Animal Co., Ltd. Feeding environment: the temperature was kept at 22±1° C., and the humidity was kept at 65%-70%, in a 12/12 hour light/dark illumination cycle, with free access to water.
(1) 32 SPF-grade C57 mice aged 6-8 weeks were purchased and acclimatized for one week, and subsequently the modeling was started.
(§1) (2) MPTP (25 mg/kg) was intraperitoneally injected once a day for 7 consecutive days. The blank group was left untreated.
(§2) (3) After modeling, administration was started. […] The intragastric administration was performed once a day for 14 consecutive days.
(4) Behavioral test was first performed by balance beam test scoring.
A beam of 80 cm long and 2.5 cm wide was horizontally fixed at a height of 10 cm from the table top, and subsequently, the animals were allowed to walk on the beam.
The scoring scale was as follows: being able to jump on the balance beam and to walk freely without falling down: 0 points; being able to jump on the balance beam, but having a probability of tumbling down of less than 50% when walking on the balance beam: 1 point; being able to jump on the balance beam, but having a probability of tumbling down of greater than 50% when walking on the balance beam: 2 points; being able to jump on the balancing beam with the help of the normal side of the body, but failing to get help from the hind limb on the paralyzed side to move forward: 3 points; being unable to walk on the balance beam, but being able to sit on the beam: 4 points; falling off quickly when being placed on the beam: 5 points.

[2] = test system: tyrosine hydroxylase (TH) cells in substantia nigra (SubN); test: Tyrosine hydroxylase (TH) cells in substantia nigra (SubN) by immunohistochemistry in the MPTP mouse model of Parkinson's disease; settings: for positive rate of TH cells in substantia nigra as compared to the model group: after treatment; for TH cell positive rate: substantia nigra, after 14 days intragastric treatment (compound 3 100 mg/kg; amantadine 40 mg/kg), blank 34.27 ± 5.08, model 12.74 ± 1.71
Procedure: as §1, §2
The tissue should be cut using sharp knives and scissors. When cutting a tissue mass, the tissue was cut by pulling backwards from the root of the knife. […] The prepared tissue mass was fixed in 10% formalin for 48 h.
The fixed tissue was washed with running water to remove residual fixing liquid and impurities. The tissue mass was dehydrated in stages with different concentrations of ethanol (50%, 70%, 85%, 95%, up to pure alcohol (absolute ethanol)), each stage for 2 h. Dehydration must be performed in a capped flask to prevent high concentrations of ethanol from absorbing moisture in the air, resulting in reduced concentrations and incomplete dehydration. The material to be preserved can remain in 70% ethanol when being dehydrated with it. For long-term preservation, an equivalent amount of glycerol can be added.
The tissue mass was placed into a mixed solution of pure ethanol and xylene in an equivalent volume and left to stand for 2 h, subsequently placed into pure xylene and left to stand for two hours, and placed into pure xylene and left to stand for another two hours. After transparentizing, the effect of the previous dehydration of the material can be shown. If the dehydration is complete, the tissue is in a transparent state, and if there is a white cloud-shaped substance in the tissue, it means that the dehydration is incomplete and must be reworked, but the effect of rework is often not good. When xylene is used for transparentizing, it should be prevented from volatilizing and absorbing moisture in the air, and it should be kept in an anhydrous state.
The paraffin immersion must be performed in a thermostat. The tissue mass material was first immersed in a mixed solution of molten paraffin and xylene in equal volume for 1-2 h and subsequently immersed in 2 parts of molten paraffin solutions for 3 h each.
Embedding is the encapsulation of the paraffin-impregnated tissue mass with paraffin. Specifically, a paper box was first prepared, molten paraffin was added to the box, a tissue mass was quickly clamped by using a pair of pre-heated tweezers, and placed flat at the bottom of the paper box with a cut surface facing downwards. Subsequently, the paper box was slightly lifted up and placed flat in cold water, immediately pressed into the water after the paraffin on the surface was solidified for quickly cooling and solidifying the paraffin, and taken out after 30 min.
The paraffin block was placed in a refrigerator at −20° C. for at least 30 min before slicing to increase hardness. […]

dopamine in striatum = test: Content of dopamine in brain striatum by the kit method (ELISA) in the MPTP mouse model of Parkinson's disease
Procedure: as §1, §2
After the mice were sacrificed quickly, the brains of the mice were taken and the cerebral palliums (CPs) of the mice were isolated. After exposing the brain striatum of the mice, the striatum was weighed and homogenized after adding PBS according to a proportion. The supernatant was isolated and detected for the content of dopamine in the brain striatum.
(1) Standard curve plotting: a microplate was taken, and reagents were added according to the table below.
(2) According to the number of samples, a proper amount of BCA working solution was prepared by uniformly mixing BCA reagent A and reagent B according to a volume ratio of 50:1.
(3) 160 μL of BCA working solution was added to each well.
(4) The microplate was shaken on a shaker for 30 s, left to stand at 37° C. for 30 min, and subsequently measured for absorbance at 562 nm. A standard curve was plotted with the absorbance value as an abscissa and the protein concentration (μg/μL) as an ordinate.
(5) 2 μL of test protein and 18 μL of PBS (10-fold dilution) were added to the microplate, 160 μL of BCA working solution was added, and the microplate was shaken on a shaker for 30 s, left to stand at 37° C. for 30 min, and subsequently measured for the absorbance at 562 nm.
(7) The experimental procedures and methods for the determination of dopamine in mice were referred to the kit instructions.

SMILES	balance beam score after treatment [1]	Behavioral balance beam score, After treatment [1]	balance beam score as compared to the model group [1]	Behavioral balance beam score, After modeling [1]	positive rate of TH cells in substantia nigra as compared to the model group [2]	TH cell positive rate [2] [%]	DA content of dopamine in striatum after treatment (dopamine in striatum; after 14 days intragastric treatment (compound 3 100 mg/kg; amantadine 40 mg/kg), blank 0.71 ± 0.16, model 0.30 ± 0.07) [ng/mg]	dopamine content as compared to the model group (dopamine in striatum; after treatment, P≤0.01)	content of dopamine compared with the blank group (dopamine in striatum; after treatment, P≤0.05)
NC12CC3CC(CC(C3)C1)C2 [Positive drug, amantadine, reference compound]	2-3 points	2.13 ± 0.83	significant descending trend	4.75 ± 0.46	significant increase	20.82 ± 5.77			
C=C(C)[C@@H]1CCC(C)=C[C@H]1c1c(OC(=O)[C@@H](N)CCCCN)cc(CCCCC)cc1OC(=O)[C@@H](N)CCCCN [compound 3]	3-4 points	3.50 ± 1.07	significant descending trend	4.38 ± 0.52	increase	14.59 ± 2.60	0.45 ± 0.10	increase	significant decrease
